Results reported in patent US8080519B2, “Compositions and methods for enhanced pharmacological activity of compositions comprising peptide drug substances” (priority 1999, dated 2011).

Experiments:
splenocytes = assay: T cell proliferation in a skin immunization model (tritiated thymidine incorporation by splenocytes); assay type: in vivo, mice; conditions: for Proliferation Index: splenocytes grown 4 days, 2 weeks after skin immunization; for proliferation index, overall comparison: comparison among the tested formulations
Experimental: Model: • 9 week old mice were immunized by application on bare skin of 100·g of Nef(66-97) peptide sequence and modifications thereof in addition to 5·g of choleric toxin and 100·g of oligodeoxynucleotide containing a CpG moiety (Immunology, 2002 104:1-14). 2 weeks later splenocytes were collected and grown over 4 days in the presence of 4 different concentrations of Nef(66-97) peptide (SEQ ID NO:2). The proliferation was measured by incorporating tritiated thymidine.

male Wistar rats = assay: hot plate test in rats (time to first licking of the posterior foot); assay type: in vivo, rat; conditions: for Time to first signal activity after i.v. administration: morphine 1 mg/kg; for Time to first signal activity after i.v. administration / Time to first signal activity after oral administration: CY5M 2.5 mg/kg; for Time to first signal activity after oral administration: morphine, codeine, ibuprofen 10 mg/kg
Experimental: The time to first licking of the posterior foot by the rat is recorded after the rat has been place on a hot plate maintained at an elevated temperature (40° C.). This procedure provides accurate data on central analgesic activities induced by various candidate drugs. Under placebo conditions, the time to first licking of the posterior foot of the test animal varies between 30 and 50 seconds. […] In the experiments reported herein, a standard hot plate test was used to assess analgesia and the time to first licking of the test animal's posterior foot was used as the triggering event for measurement of elapsed time as indicative of the pharmacological effect of the administered drug species.
Seven groups of five male Wistar rats each were randomly assigned to the following treatments: placebo, 1 mg/kg morphine (i.v.), 10 mg/kg morphine (oral), 10 mg/kg codeine (oral), 10 mg/kg ibuprofen (oral), 2.5 mg/kg CY5M (i.v.), and 2.5 mg/kg CY5M (oral). The method was pre-validated with two oral and i.v. administrations of saline placebo and the results were similar to those obtained with placebo in the experiment reported below.

[1] = cited from earlier work
[2] = cited from earlier work; remark: listed apart in the source

Compound: Cinnamoyl-Nef(66-97) G95ψ . . . (CH2—CH2) G96 [C0]
- Proliferation Index (splenocytes; Conc. of Nef peptide 0.5): 12
- Proliferation Index (splenocytes; Conc. of Nef peptide 5): 14
- Proliferation Index (splenocytes; Conc. of Nef peptide 50): 12
- Proliferation Index (splenocytes; Conc. of Nef peptide .05): 08

Compound: CN1CC[C@]23c4c5ccc(O)c4O[C@H]2[C@@H](O)C=C[C@H]3[C@H]1C5 [Morphine]
- duration of analgesic effect (male Wistar rats; i.v. administration): six
- Time to first signal activity after i.v. administration (male Wistar rats; i.v., 0 h): 51.8 s
- Time to first signal activity after i.v. administration (male Wistar rats; i.v., 1 h): 118.8 s
- Time to first signal activity after i.v. administration (male Wistar rats; i.v., 2 h): 86.6 s
- Time to first signal activity after i.v. administration (male Wistar rats; i.v., 4 h): 63.2 s
- Time to first signal activity after i.v. administration (male Wistar rats; i.v., 6 h): 45.6 s
- Time to first signal activity after i.v. administration (male Wistar rats; i.v., 24 h): 40.0 s
- duration of analgesic effect (male Wistar rats; oral administration): six
- Time to first signal activity after oral administration (male Wistar rats; oral, 0 h): 51.8 s
- Time to first signal activity after oral administration (male Wistar rats; oral, 1 h): 84.8 s
- Time to first signal activity after oral administration (male Wistar rats; oral, 2 h): 81.2 s
- Time to first signal activity after oral administration (male Wistar rats; oral, 4 h): 58.8 s
- Time to first signal activity after oral administration (male Wistar rats; oral, 6 h): 48.8 s
- Time to first signal activity after oral administration (male Wistar rats; oral, 24 h): 42.0 s

Compound: Tyr-Gly-Gly-Phe-Met [Met-Enkephalin]
- duration of transient effect after i.v. administration (male Wistar rats; preliminary study, i.v.): about 15 minutes
- analgesic effect after oral administration (male Wistar rats; preliminary study, oral, 5 mg/kg dose): unable to demonstrate any effect

Compound: C[C@H](N[C@@H](CCc1ccccc1)C(=O)O)C(=O)N1CCC[C@H]1C(=O)O [Enalaprilat]
- oral absorption [1]: very poorly absorbed orally

Compound: CC(C)Cc1ccc(C(C)C(=O)O)cc1 (stereo not drawn) [Ibuprofen]
- Time to first signal activity after oral administration (male Wistar rats; oral, 0 h): 53.2 s
- Time to first signal activity after oral administration (male Wistar rats; oral, 1 h): 55.0 s
- Time to first signal activity after oral administration (male Wistar rats; oral, 2 h): 70.4 s
- Time to first signal activity after oral administration (male Wistar rats; oral, 4 h): 66.0 s
- Time to first signal activity after oral administration (male Wistar rats; oral, 6 h): 54.0 s
- Time to first signal activity after oral administration (male Wistar rats; oral, 24 h): 44.2 s

Compound: cinnamoyl-Met-Enkephalin [CY5M]
- duration of analgesic effect (male Wistar rats; i.v. administration): ≥ 24 h
- Time to first signal activity after i.v. administration (male Wistar rats; i.v., 0 h): 51.0 s
- Time to first signal activity after i.v. administration (male Wistar rats; i.v., 1 h): 57.0 s
- Time to first signal activity after i.v. administration (male Wistar rats; i.v., 2 h): 114.0 s
- Time to first signal activity after i.v. administration (male Wistar rats; i.v., 4 h): 88.2 s
- Time to first signal activity after i.v. administration (male Wistar rats; i.v., 6 h): 106.0 s
- Time to first signal activity after i.v. administration (male Wistar rats; i.v., 24 h): 86.6 s
- effectiveness relative to morphine by the same route (area under the dose response curve) (male Wistar rats; i.v., CY5M 2.5 mg/kg vs morphine 1 mg/kg): at least 8 times
- duration of analgesic effect (male Wistar rats; oral administration): ≥ 24 h
- Time to first signal activity after oral administration (male Wistar rats; oral, 0 h): 53.6 s
- Time to first signal activity after oral administration (male Wistar rats; oral, 1 h): 46.2 s
- Time to first signal activity after oral administration (male Wistar rats; oral, 2 h): 78.8 s
- Time to first signal activity after oral administration (male Wistar rats; oral, 4 h): 78.2 s
- Time to first signal activity after oral administration (male Wistar rats; oral, 6 h): 82.6 s
- Time to first signal activity after oral administration (male Wistar rats; oral, 24 h): 98.8 s
- effectiveness relative to morphine by the same route (area under the dose response curve) (male Wistar rats; oral, CY5M 2.5 mg/kg vs morphine 10 mg/kg): at least 8 times

Compound: VGFPVTPQVPLRPMTYKAAVDLSHFLKEKGGL [Nef]
- Proliferation Index (splenocytes; Conc. of Nef peptide 0.5): 10
- Proliferation Index (splenocytes; Conc. of Nef peptide 5): 13
- Proliferation Index (splenocytes; Conc. of Nef peptide 50): 10
- Proliferation Index (splenocytes; Conc. of Nef peptide .05): 03

Compound: CCOC(=O)[C@H](CCc1ccccc1)N[C@@H](C)C(=O)N1CCC[C@H]1C(=O)O [Enalapril]
- oral absorption [1]: better absorbed orally

Compound: Cinnamoyl-aminooctanoyl-Nef(66-97) G95ψ . . . (CH2—CH2) G96 [CC8]
- Proliferation Index (splenocytes; Conc. of Nef peptide 0.5): 22
- Proliferation Index (splenocytes; Conc. of Nef peptide 5): 20
- Proliferation Index (splenocytes; Conc. of Nef peptide 50): 16
- Proliferation Index (splenocytes; Conc. of Nef peptide .05): 10
- proliferation index, overall comparison (splenocytes): best proliferation index

Compound: Nef(66-97)-palmitoyl lysilamide [Lipo]
- Proliferation Index (splenocytes; Conc. of Nef peptide 0.5): 06
- Proliferation Index (splenocytes; Conc. of Nef peptide 5): 08
- Proliferation Index (splenocytes; Conc. of Nef peptide 50): 07
- Proliferation Index (splenocytes; Conc. of Nef peptide .05): 03

Compound: NCCCC[C@H](N[C@@H](CCc1ccccc1)C(=O)O)C(=O)N1CCC[C@H]1C(=O)O [Lisinopril]
- solubility in water [2]: relatively good solubility in water
- oral bioavailability [1]: < 25%
- Tmax (time to maximum serum levels in vivo) ([1]; oral): more than seven

Compound: COc1ccc2c3c1O[C@H]1[C@@H](O)C=C[C@H]4[C@@H](C2)N(C)CC[C@@]341 [Codeine]
- Time to first signal activity after oral administration (male Wistar rats; oral, 0 h): 53.2 s
- Time to first signal activity after oral administration (male Wistar rats; oral, 1 h): 51.4 s
- Time to first signal activity after oral administration (male Wistar rats; oral, 2 h): 64.6 s
- Time to first signal activity after oral administration (male Wistar rats; oral, 4 h): 57.6 s
- Time to first signal activity after oral administration (male Wistar rats; oral, 6 h): 56.2 s
- Time to first signal activity after oral administration (male Wistar rats; oral, 24 h): 46.4 s

Compound: D-Gal(OPiv)4-hydroxyvaleryl-aminooctanoyl-Nef(66-97) • G95ψ . . . (CH2—CH2) G96 [Pivgal]
- Proliferation Index (splenocytes; Conc. of Nef peptide 0.5): 05
- Proliferation Index (splenocytes; Conc. of Nef peptide 5): 08
- Proliferation Index (splenocytes; Conc. of Nef peptide 50): 10
- Proliferation Index (splenocytes; Conc. of Nef peptide .05): 02

Compound: Cinnamoyl-aminovaleryl-Nef(66-97) G95ψ . . . (CH2—CH2) G96 [CC5]
- Proliferation Index (splenocytes; Conc. of Nef peptide 0.5): 22
- Proliferation Index (splenocytes; Conc. of Nef peptide 5): 21
- Proliferation Index (splenocytes; Conc. of Nef peptide 50): 20
- Proliferation Index (splenocytes; Conc. of Nef peptide .05): 11
- proliferation index, overall comparison (splenocytes): best proliferation index
